# Test results from patent US20040110821A1, “GAL3 receptor antagonists for the treatment of affective disorders” (priority 2002, published 2004).
# Where “and” joins values, the source holds several entries; their conditions need not be identical. Equal entries are not always repeated. Marks after values point to notes of the source that are not given here.
# What was measured:
# [1] = molecular target: T1, human GAL1 receptor (Homo sapiens, UniProt P47211); assay: Radioligand binding at cloned human GAL1 receptor; conditions: pyrimidines, Tables 1-3, read-out: Ki (nM) GalR1
# T1 construct: expressed in transfected cells
# T1 sequence (P47211 1-349): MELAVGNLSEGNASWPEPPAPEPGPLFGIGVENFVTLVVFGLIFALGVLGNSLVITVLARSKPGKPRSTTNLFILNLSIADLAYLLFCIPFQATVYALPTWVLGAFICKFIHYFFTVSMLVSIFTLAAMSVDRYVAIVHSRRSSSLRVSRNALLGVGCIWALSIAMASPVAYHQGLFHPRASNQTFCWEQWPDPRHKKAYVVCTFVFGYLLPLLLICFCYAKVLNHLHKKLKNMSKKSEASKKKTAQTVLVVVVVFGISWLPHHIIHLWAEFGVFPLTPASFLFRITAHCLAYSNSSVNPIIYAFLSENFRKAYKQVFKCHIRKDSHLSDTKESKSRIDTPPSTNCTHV
# Method: (§1) The present invention provides for a method of determining the binding affinity of a GAL3 antagonist, wherein the GAL3 antagonist is dissolved in a “suitable solvent”. A “suitable solvent” means one which permits the measurement of binding affinity of the GAL3 antagonist to the human GAL3 receptor at concentrations less than 1 μM, preferably less than 100 nM. Examples of solvents include, but are not limited to, DMSO, ethanol, N,N-dimethylacetamide, or water. For indolones, the preferred solvent is 3% DMSO (final concentration in the assay). For pyrimidines, the preferred solvent is 1% ethanol/0.09% polypuronic acid F-127 (final concentration in the assay). For any other type of compounds, the preferred solvent is the solvent which permits the measurement of binding affinity of a GAL3 antagonist at the lowest concentration. Once a suitable solvent is ascertained for the binding assay of the human GAL3 receptor, the same solvent is used in assays to determine the binding affinity for instance, at the GAL1 receptor.
# (§2) The binding properties of the pyrimidines of the present invention were evaluated at the cloned human galanin receptors, GAL1, GAL2, and GAL3, using protocols described herein.
# (§3) The binding properties of the indolones of the present invention were evaluated at the cloned human galanin receptors, GAL1, GAL2, and GAL3, using protocols described herein.
# (§4) LM(tk-) cells were stably transfected with the human GAL1 or GAL3 receptor. CHO cells were stably transfected with the human GAL2 receptor.
# (§5) cDNAs for the human and rat GAL1, and human and rat GAL3 receptors were transfected with a G-418 resistant gene into the mouse fibroblast LM(tk-) cell line by a calcium phosphate transfection method (Cullen, 1967). Stably transfected cells were selected with G-418. Human and rat GAL2 receptors were similarly transfected into CHO cells.
# (§6) Membranes were harvested from stably transfected LM(tk-) cells. Adherent cells were washed twice in ice-cold phosphate buffered saline (138 mM NaCl, 8.1 mM Na2HPO4, 2.5 mM KCl, 1.2 mM KH2PO4, 0.9 mM CaCl2, 0.5 mM MgCl2, pH 7.4) and lysed by sonication in ice-cold sonication buffer (20 mM Tris-HCl, 5 mM EDTA, pH 7.7). Large particles and debris were cleared by low speed centrifugation (200×g, 5 min, 4° C.). Membranes were collected from the supernatant fraction by centrifugation (32,000×g, 18 min, 4° C.), washed with ice-cold hypotonic buffer, and collected again by centrifugation (32,000×g, 18 min, 4° C.). The final membrane pellet was resuspended by sonication into a small volume of ice-cold binding buffer (−1 ml for every 5 plates: 10 mM NaCl, 20 mM HEPES, 0.22 mM KH2PO4, 1.26 mM CaCl2, 0.81 mM MgSO4, pH 7.4). Protein concentration was measured by the Bradford method (Bradford, 1976) using Bio-Rad Reagent, with bovine serum albumin as a standard. Membranes were held on ice for up to one hour and used fresh, or flash frozen and stored in liquid nitrogen. Membranes were prepared similarly from CHO cells.
# (§7) Galanin Receptors: Binding assays were performed according to the following published methods: human GAL3 (PCT International Publication No. WO 98/15570), human GAL1 (PCT International Publication No. WO 95/2260) human GAL2 (PCT International Publication No. WO 97/26853).
# (§8) Binding data were analyzed using nonlinear regression and statistical techniques available in the GraphPAD Prism package (San Diego, Calif.). Enzymatic assay data were derived from a standard curve of reference compound data.
# [2] = molecular target: T2, human GAL2 receptor (Homo sapiens, UniProt O43603); assay: Radioligand binding at cloned human GAL2 receptor; conditions: pyrimidines, Tables 1-3, read-out: Ki (nM) GalR2
# T2 construct: expressed in transfected cells
# T2 sequence (O43603 1-387): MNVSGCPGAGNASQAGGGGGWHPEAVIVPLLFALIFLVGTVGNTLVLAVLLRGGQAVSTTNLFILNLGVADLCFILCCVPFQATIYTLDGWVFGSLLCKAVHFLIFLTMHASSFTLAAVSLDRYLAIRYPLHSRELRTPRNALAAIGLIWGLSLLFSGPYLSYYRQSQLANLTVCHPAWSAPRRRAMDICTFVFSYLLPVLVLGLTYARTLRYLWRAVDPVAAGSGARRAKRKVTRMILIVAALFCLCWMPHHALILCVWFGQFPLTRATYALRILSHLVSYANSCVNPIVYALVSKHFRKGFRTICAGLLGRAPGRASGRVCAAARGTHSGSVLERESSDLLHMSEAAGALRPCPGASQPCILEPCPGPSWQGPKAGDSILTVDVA
# Method: as §1, §2, §3, §4, §5, §6, §7, §8
# [3] = system: Male Sprague-Dawley rats; assay: Rat Forced Swim Test (FST); assay type: in vivo; conditions: for overall profile in the Forced Swim Test (conclusion in words): rat, in vivo
# [4] = 1 mg/kg p.o., single administration 1 hr before 5 min test
# [5] = 3 mg/kg p.o., single administration 1 hr before 5 min test
# [6] = 10 mg/kg p.o., single administration 1 hr before 5 min test
# [7] = 3 mg/kg p.o., single administration 24 hours before the test
# [8] = 30 mg/kg p.o., single administration 1 hr before 5 min test
# [9] = 5 mg/kg p.o., single administration 1 hr before 5 min test
# [10] = 10 mg/kg p.o., single administration 1 hr before 5 min test, listed as Fluox
# [11] = 10 mg/kg p.o., single administration 1 hr before 5 min test, listed as fluoxetine
# [12] = 10 mg/kg p.o., single administration 24 hours before the test
structure (smiles),measurement,setting,value
CN(CCc1c[nH]c2ccccc12)c1nc(Nc2cccc(F)c2)cc(N2CCCCC2)n1 [Example 14],Ki,[1],> 5000 nM
Cc1ccc(Nc2cc(N3CCCCC3)nc(N3CCc4ccccc43)n2)cc1 [Example 39],Ki,[1],> 5000 nM
same,Ki,[2],> 5000 nM
Cc1ccc(Nc2cc(N3CCCCC3)nc(N3CCN(c4cc(C(F)(F)F)ccn4)CC3)n2)cc1 [Example 32],Ki,[1],> 5000 nM
Cc1ccc(Nc2cc(N(C)C)nc(N3CCC(c4ccccc4)CC3)n2)cc1 [Example 81],Ki,[1],> 5000 nM
Cc1ccc(Nc2cc(N3CCCCC3)nc(N(C)c3ccccc3)n2)cc1 [Example 6],Ki,[1],> 5000 nM
COc1ccc2[nH]cc(CCNc3nc(Nc4ccc(C)cc4)cc(N4CCCCC4)n3)c2c1 [Example 9],Ki,[1],> 5000 nM
Cc1ccc(Nc2cc(N3CCCCC3)nc(N(C)CCc3c[nH]c4ccccc34)n2)cc1 [Example 11],Ki,[1],> 5000 nM
Cc1ccc(Nc2cc(N3CCCCC3)nc(NCCc3c[nH]c4ccccc34)n2)cc1 [Example 10],Ki,[1],> 5000 nM
COc1cccc(Nc2cc(N3CCCCC3)nc(N(C)CCc3c[nH]c4ccccc34)n2)c1 [Example 17],Ki,[1],> 5000 nM
Cc1ccc(Nc2cc(N(C)C)nc(N(C)C3CCCCC3)n2)cc1 [Example 73],Ki,[1],> 5000 nM
Cc1ccc(Nc2cc(N3CCCCC3)nc(N3CCC(c4ccccc4)CC3)n2)cc1 [Example 24],Ki,[1],> 5000 nM
Cc1ccc(Nc2cc(N3CCCCC3)nc(N3CCCc4ccccc43)n2)cc1 [Example 40],Ki,[1],> 5000 nM
Cc1ccc(Nc2cc(N(C)C)nc(N3CCN(c4ccccc4C)CC3)n2)cc1 [Example 85],Ki,[1],> 5000 nM
COc1cc2c(cc1OC)CN(c1nc(Nc3ccc(C)cc3)cc(N3CCCCC3)n1)CC2 [Example 42],Ki,[1],> 5000 nM
CN(C)c1cc(Nc2ccc(Cl)c(Cl)c2)nc(N2CCN(Cc3ccccc3)CC2)n1 [EX151],Climbing,[3]; [4],2.3 ± 0.6 counts
same,Diving,[3]; [4],0.2 ± 0.2 counts
same,Immobility,[3]; [4],41 ± 2.0 counts
same,Swimming,[3]; [4],16.8 ± 1.4^d counts
same,Climbing,[3]; [5],2.4 ± 0.5 counts
same,Diving,[3]; [5],0.3 ± 0.2 counts
same,Immobility,[3]; [5],38 ± 2.0^a counts
same,Swimming,[3]; [5],19.5 ± 1.5^e counts
same,Climbing,[3]; [6],2.2 ± 0.5 counts
same,Diving,[3]; [6],0.3 ± 0.2 counts
same,Immobility,[3]; [6],39 ± 1.8^b counts
same,Swimming,[3]; [6],18.9 ± 1.5^e counts
"O=C1/C(=N\c2ccc(Cl)c(Cl)c2)c2ccccc2N1c1ccsc1 [Example 272, (3Z)-3-[(3,4-DICHLOROPHENYL)IMINO]-1-(3-THIENYL)-1,3-DIHYDRO-2H-INDOL-2-ONE]",Climbing,[3]; [7],not significantly altered
same,Diving,[3]; [7],not significantly altered
same,Immobility,[3]; [7],significantly decreased immobility
same,Swimming,[3]; [7],significant increase in swimming behavior
same,overall profile in the Forced Swim Test (conclusion in words),[3],has the profile of an antidepressant-like
Cc1ccc(Nc2cc(N3CCCCC3)nc(N3CCN(c4ncccn4)CC3)n2)cc1 [Example 37],Ki,[1],> 5000 nM
Cc1ccc(Nc2cc(N(C)C)nc(N3CCC(O)(c4ccccc4)CC3)n2)cc1 [Example 80],Ki,[1],> 5000 nM
COCCN(CCc1c[nH]c2ccccc12)c1nc(Nc2ccc(C)cc2)cc(N2CCCCC2)n1 [Example 19],Ki,[1],> 5000 nM
Cc1ccc(Nc2cc(N(C)C)nc(N(C)c3ccc(C)cc3)n2)cc1 [Example 72],Ki,[1],> 5000 nM
Cc1ccc(Nc2cc(N3CCCCC3)nc(N3CCC(O)(c4ccccc4)CC3)n2)cc1 [Example 44],Ki,[1],> 5000 nM
Cc1ccc(Nc2cc(N3CCCCC3)nc(N3CCN(c4ncccc4C)CC3)n2)cc1 [Example 31],Ki,[1],> 5000 nM
Cc1ccc(Nc2cc(N(C)C)nc(N3CCN(c4ccc(C)cc4)CC3)n2)cc1 [Example 87],Ki,[1],> 5000 nM
Cc1ccc(Nc2cc(N3CCCCC3)nc(N3CCN(c4ccccn4)CC3)n2)cc1 [Example 30],Ki,[1],> 5000 nM
CCc1ccccc1N1CCN(c2nc(Nc3ccc(C)cc3)cc(N3CCCCC3)n2)CC1 [Example 26],Ki,[1],> 5000 nM
"O=C1C(=Nc2ccc(Br)cc2)c2ccccc2N1c1ccccc1 [Example 98, 3-[(4-BROMOPHENYL)IMINO]-1-PHENYL-1,3-DIHYDRO-2H-INDOL-2-ONE]",Climbing,[3]; [5],no significant difference in the number of climbing counts
same,Diving,[3]; [5],not significantly altered
same,Immobility,[3]; [5],significantly decreased immobility
same,Swimming,[3]; [5],significantly increased swimming
same,Climbing,[3]; [6],no significant difference in the number of climbing counts
same,Diving,[3]; [6],not significantly altered
same,Immobility,[3]; [6],significantly decreased immobility
same,Swimming,[3]; [6],significantly increased swimming
same,Climbing,[3]; [8],no significant difference in the number of climbing counts
same,Diving,[3]; [8],not significantly altered
same,Immobility,[3]; [8],significantly decreased immobility
same,Swimming,[3]; [8],significantly increased swimming
same,overall profile in the Forced Swim Test (conclusion in words),[3],produces a profile in the modified Lucki version of the FST resembling that of the clinically established antidepressant fluoxetine
"CNCCC(Oc1ccc(C(F)(F)F)cc1)c1ccccc1 (stereo not shown) [Fluoxetine, fluoxetine, reference compound]",Climbing,[3]; [9],not significantly altered
same,Diving,[3]; [9],not significantly altered
same,Immobility,[3]; [9],did not significantly alter immobility
same,Swimming,[3]; [9],did not significantly alter swimming
same,Climbing,"[3]; 10 mg/kg i.p., single injection 1 h before 5 min test",did not significantly alter climbing counts
same,Immobility,[3]; [10],38 ± 2.3^a counts and 34 ± 2.3^b counts and 34 ± 3.0^a counts and 34 ± 3.3^b counts and 38 ± 1.3^b counts and 39 ± 1.7^d counts and 38 ± 2.2 counts
same,Swimming,[3]; [10],"19.8 ± 1.8^e counts and 21.8 ± 1.4^c counts and 22.8 ± 2.2^c counts and 21.3 ± 1.8^d,e counts and 21.6 ± 1.1^e counts and 19.2 ± 1.2^e counts and 20.0 ± 1.5^c counts"
same,Diving,"[3]; 10 mg/kg p.o., single administration 1 hr before 5 min test, listed as fluoxet-ine",not significantly altered
same,Diving,[3]; [11],not significantly altered
same,Immobility,[3]; [11],significantly decreased immobility
same,Swimming,[3]; [11],significant increase in swimming behavior
same,Climbing,[3]; [12],not significantly altered
same,Diving,[3]; [12],not significantly altered
same,Immobility,[3]; [12],significantly decreased immobility
same,Swimming,[3]; [12],significant increase in swimming behavior
Cc1ccc(Nc2cc(N3CCCCC3)nc(NCCc3c[nH]c4ccc(C)cc34)n2)cc1 [Example 8],Ki,[1],> 5000 nM
